The values that follow come from US6924305B2, “Diazocine derivatives and their use as tryptase inhibitors” (Altana Pharma AG, priority 2001, dated 2005).

For the experiment, the target named is human tryptase. Kind of experiment: Inhibition of human tryptase (apparent dissociation constant, chromogenic substrate tos-Gly-Pro-arg-pNA). The conditions noted are these: pKiapp = -log Kiapp (mol/l), in presence of substrate, heparin 0.1-50 μg/ml, equilibrium conditions. The class given is biochemical. The text has this:
The documented pathophysiological effects of mast cell tryptase are caused directly by the enzymatic activity of the protease. Accordingly, they are reduced or blocked by inhibitors which inhibit the enzymatic activity of the tryptase. A suitable measure for the affinity of a reversible inhibitor to the target protease is the equilibrium dissociation constant K1 of the enzyme-inhibitor complex. This K1 value can be determined via the effect of the inhibitor on the tryptase-induced cleavage of a chromogenic peptide-p-nitroanilide substrate or a fluorogenic peptide-aminomethylcoumarin substrate.
The dissociation constants for the tryptase-inhibitor complexes are determined under equilibrium conditions in accordance with the general proposals of Bieth (Bieth J G, Pathophysiological Interpretation of kinetic constants of protease inhibitors, Bull. Europ. Physiopath. Resp. 16:183-195, 1980) and the methods of Sommerhoff et al. (Sommerhoff C P et al., A Kazal-type inhibitor of human mast cell tryptase: Isolation from the medical leech Hirudo medicinalis, characterization, and sequence analysis, Biol. Chem. Hoppe-Seyler 375: 685-694, 1994).
Human tryptase is isolated from lung tissue or prepared recombinantly; the specific activity of the protease, determined by titration, is usually greater than 85% of the theoretical value. In the presence of heparin (0.1-50 μg/ml) for stabilizing the protease, constant amounts of the tryptase are incubated with increasing amounts of the inhibitors. After an equilibrium between the reaction partners has formed, the remaining enzyme activity after addition of the peptide-p-nitroanilide substrate tos-Gly-Pro-arg-pNA is determined and the cleavage of the latter is monitored at 405 nm for 3 min. Alternatively, the remaining enzymatic activity can also be determined using fluorogenic substrates. The apparent dissociation constants Klapp (i.e. in the presence of substrate) are subsequently determined by adapting the enzyme rates to the general equation for reversible inhibitors (Morrison J F, Kinetics of the reversible inhibition of enzyme-catalyzed reactions by tight-binding inhibitors, Biochim. Biophys. Acta 185, 269-286, 1969) using non-linear regression: V1/V0=1−{Et+It+Klapp−(Et+ItKlapp)^2−4EtIt]^1/2}/2Et V1 and V0 are the rates in the presence and absence, respectively, of the inhibitor, and Et and It are the tryptase and inhibitor concentrations, respectively.
The apparent dissociation constants determined for the compounds according to the invention are shown in Table A below, where the numbers of the compounds correspond to the numbers of the compounds in the examples [pKlapp=−logKlapp (mol/l)].

`Cl.Cl.NCc1ccc(CCC(=O)N2CC(NC(=O)CN3CCC(=O)N(CC(=O)NC4CC(C(N)=O)N(C(=O)CCc5ccc(CN)cc5)C4)CCC3=O)CC2C(N)=O)cc1` (centres unmarked) [Compound 5, 1,5-Bis{N,N′-[1-(3-(4-aminomethylphenyl)proplonyl)-2-aminocarbonylpyrrolidin-4-yl]-aminocarbonylmethyl}perhydro-1,5-diazocine-2,6-dione dihydrochloride]: the pKiapp came out at 8.80.

On to `Cl.Cl.NCc1ccc(CCC(=O)N2CC(NC(=O)CN3CCC(=O)N(CC(=O)NC4CC(C(=O)O)N(C(=O)CCc5ccc(CN)cc5)C4)CCC3=O)CC2C(=O)O)cc1` (centres unmarked) [Compound 3, 1,5-Bis{N,N′-[1-(3-(4-aminomethylphenyl)proplonyl)-2-carboxypyrrlidin-4-yl]-aminocarbonylmethyl}perhydro-1,5-diazocine-2,6-dine dihydrochloride], for which the pKiapp was 7.43.

In the case of `COC(=O)C1CC(NC(=O)CN2CCC(=O)N(CC(=O)NC3CC(C(=O)OC)N(C(=O)CCc4ccc(CN)cc4)C3)CCC2=O)CN1C(=O)CCc1ccc(CN)cc1.Cl.Cl` (centres unmarked) [Compound 1, 1,5-Bis{N,N′-[1-(3-(4-aminomethylphenyl)propionyl)-2-methoxycarbonylpyrrolidin-4-yl]aminocarbonylmethyl}perhydro-1,5-diazocine-2,6-dione dihydrochloride], the pKiapp came out at 9.05.

Turning to `Cl.Cl.NCc1ccc(CCC(=O)N2CC(NC(=O)CN3CCC(=O)N(CC(=O)NC4CC(C(=O)OCc5ccccc5)N(C(=O)CCc5ccc(CN)cc5)C4)CCC3=O)CC2C(=O)OCc2ccccc2)cc1` (centres unmarked) [Compound 2, 1,5-Bis{N,N′-[1-(3-(4-aminomethylphenyl)propionyl)-2-benzyloxycarbonylpyrrolidin-4-yl]aminocarbonylmethyl}perhydro-1,5-diazocine-2,6-dione dihydrochloride], the pKiapp is 9.22.

In the case of `Cl.Cl.NCc1ccc(CCC(=O)N2CC(NC(=O)CN3CCC(=O)N(CC(=O)NC4CC(C(=O)NC5CC5)N(C(=O)CCc5ccc(CN)cc5)C4)CCC3=O)CC2C(=O)NC2CC2)cc1` (centres unmarked) [Compound 4, 1,5-Bis{N,N′-[1-(3-(4-aminomethylphenyl)propionyl)-2-cyclopropylaminocarbonyl-pyrrolidin-4-yl]aminocarbonylmethyl}perhydro-1,5-diazocine-2,6-dione dihydrochloride], the pKiapp was 9.66.
